In BigSolDB 2.1:

COc1cc([N+](=O)[O-])ccc1N
solubility (mole fraction)
Conditions | 278.15 K | 283.15 K | 288.15 K | 293.15 K | 298.15 K | 303.15 K | 308.15 K | 313.15 K | 318.15 K | 323.15 K
in 1,4-dioxane | – | – | 0.0402 | 0.0468 | 0.0556 | 0.0652 | 0.0775 | 0.0925 | 0.111 | 0.133
in DMSO | – | – | – | 0.235 | 0.249 | 0.264 | 0.281 | 0.3 | 0.321 | 0.344
in NMP | 0.256 | 0.272 | 0.287 | 0.303 | 0.321 | 0.339 | 0.359 | 0.38 | 0.402 | 0.426
in acetonitrile | 0.0118 | 0.0141 | 0.0175 | 0.0213 | 0.0269 | 0.0345 | 0.0433 | 0.0547 | 0.0683 | 0.0872
in ethanol | 0.00263 | 0.00307 | 0.00363 | 0.00438 | 0.00534 | 0.00636 | 0.0078 | 0.00978 | 0.0121 | 0.015
in ethyl acetate | 0.0186 | 0.0227 | 0.0269 | 0.0326 | 0.0398 | 0.0486 | 0.0596 | 0.0716 | 0.0854 | 0.103
in ethylene glycol | 0.0017 | 0.00201 | 0.00243 | 0.00284 | 0.00345 | 0.00424 | 0.00527 | 0.00643 | 0.00796 | 0.00973
in methanol | 0.00238 | 0.0028 | 0.00333 | 0.00392 | 0.00466 | 0.00565 | 0.00682 | 0.00844 | 0.0104 | 0.0129
in n-butanol | 0.00135 | 0.00166 | 0.00202 | 0.00248 | 0.00304 | 0.00371 | 0.00457 | 0.0057 | 0.0072 | 0.00886
in n-propanol | 0.00199 | 0.00239 | 0.0029 | 0.0035 | 0.00423 | 0.00512 | 0.00616 | 0.00738 | 0.00876 | 0.0104
in water | 4e-06 | 6e-06 | 7e-06 | 9e-06 | 1.3e-05 | 1.7e-05 | 2.4e-05 | 3.2e-05 | 4.2e-05 | 5.5e-05
